# The source made the active and inactive calls.
# Key:
# [1] = target: T1, Heat shock factor protein 1 (Mus musculus, UniProt P38532); assay: decrease of HSF1-responsive luciferase luminescence – cell-based, NIH3T3, dose retest, confirmation (AID 2382); format: functional;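 also: NIH3T3 fibroblasts with HSF1-driven luciferase reporter stressed by proteasome inhibitor MG132; luminescence from HSF1-driven luciferase expression after 8 hours of MG132 stress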
# T1 sequence (P38532 whole entry): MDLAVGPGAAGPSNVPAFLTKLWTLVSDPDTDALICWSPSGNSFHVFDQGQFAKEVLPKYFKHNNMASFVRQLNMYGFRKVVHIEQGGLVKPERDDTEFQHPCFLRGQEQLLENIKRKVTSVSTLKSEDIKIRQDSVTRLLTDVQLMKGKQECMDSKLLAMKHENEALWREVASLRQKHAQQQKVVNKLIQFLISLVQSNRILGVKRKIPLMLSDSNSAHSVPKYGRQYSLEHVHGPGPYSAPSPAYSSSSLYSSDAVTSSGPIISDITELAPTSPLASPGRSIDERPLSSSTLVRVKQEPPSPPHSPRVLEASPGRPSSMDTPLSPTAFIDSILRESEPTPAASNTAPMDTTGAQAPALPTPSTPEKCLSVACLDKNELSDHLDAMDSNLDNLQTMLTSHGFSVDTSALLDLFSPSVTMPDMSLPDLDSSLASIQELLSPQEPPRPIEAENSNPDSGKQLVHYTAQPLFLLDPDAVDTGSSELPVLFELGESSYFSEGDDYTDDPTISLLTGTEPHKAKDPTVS
# [2] = reduction of Shn3 3'UTR-driven luciferase in osteoblasts – cell-based, Clone20 osteoblasts, firefly luciferase, cherry-picked, dose response (AID 624132); format: functional;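 also: firefly luciferase luminescence from reporter carrying the Shn3 3'UTR in osteoblasts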
# [3] = loss of viability in HepG2 cells – cell-based, CellTiter-Glo, cherry-picked, cytotoxicity control for Shn3 inhibitor project, dose response (AID 624134); format: functional
# [4] = non-specific 3'UTR reporter inhibition in Clone20-Shn3RL – cell-based, Renilla luciferase, cherry-picked, counter-screen for Shn3 inhibitor project, dose response (AID 624133); format: functional
# [5] = target: Cytochrome P450 2D6 (Homo sapiens, UniProt P10635);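 also: CYP2D6 member of a cytochrome P450 panel assay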
# [6] = target: Cytochrome P450 3A4 (Homo sapiens, UniProt P08684);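 also: CYP3A4 tested as one member of a cytochrome P450 panel screen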
# [7] = target: Cytochrome P450 2C19 (Homo sapiens, UniProt P33261); assay: Cytochrome panel assay with activity outcomes. Panel member name: p450-cyp2c19 Compounds with AC50 equal or less than 10 uM are considered active; format: functional; details: read-out: AC50
# [8] = target: Cytochrome P450 2C9 (Homo sapiens, UniProt P11712)
# [9] = viability of PTEN-deleted HCT116 cells – cell-based, HCT116 PTEN knockout, dose response (AID 1047); format: functional;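 also: HCT116 colon tumor cells with PTEN knocked out; cells exposed to compound for 60 hours before readout; potency for loss of cell viability measured by luminescence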
# [10] = viability of HCT116 lacking mutant beta-catenin – cell-based, human colon tumor, dose response (AID 1045); format: functional;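 also: HCT116 colon tumor cells with beta catenin knocked out; cells exposed to compound for 60 hours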
# [11] = target: T2, Rac GTPase-activating protein 1 (Homo sapiens, UniProt Q9H0H5); assay: blockers of MgcRacGAP-driven Rac1 GTP hydrolysis – biochemical, ADP Hunter fluorescence, primary and confirmatory, confirmation (AID 624330); format: functional
# T2 sequence (Q9H0H5 whole entry): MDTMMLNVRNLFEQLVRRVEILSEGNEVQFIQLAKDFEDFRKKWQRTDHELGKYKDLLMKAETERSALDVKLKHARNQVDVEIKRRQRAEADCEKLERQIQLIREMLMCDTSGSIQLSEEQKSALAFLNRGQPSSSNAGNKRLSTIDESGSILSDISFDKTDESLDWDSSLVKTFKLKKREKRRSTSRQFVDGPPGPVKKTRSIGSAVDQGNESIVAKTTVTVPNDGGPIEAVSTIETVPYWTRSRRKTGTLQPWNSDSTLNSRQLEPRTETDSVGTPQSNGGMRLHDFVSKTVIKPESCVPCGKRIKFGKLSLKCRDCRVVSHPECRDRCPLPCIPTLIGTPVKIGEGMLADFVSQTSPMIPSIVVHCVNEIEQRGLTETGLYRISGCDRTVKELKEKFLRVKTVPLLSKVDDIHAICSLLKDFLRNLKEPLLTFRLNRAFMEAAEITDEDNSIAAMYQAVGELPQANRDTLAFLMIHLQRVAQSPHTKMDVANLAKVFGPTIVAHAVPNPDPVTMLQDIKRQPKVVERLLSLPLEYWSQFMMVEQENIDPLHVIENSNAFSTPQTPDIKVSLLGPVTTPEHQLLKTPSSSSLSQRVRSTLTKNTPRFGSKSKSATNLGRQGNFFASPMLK
# [12] = cells; format: functional
# [13] = Trypanosoma cruzi growth suppression in host cells – NIH3T3 host cells, beta-gal luminescence, confirmation (AID 2044); format: functional, cell-based;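 also: intracellular parasites grown in NIH/3T3 mouse fibroblasts as host cells; luminescent beta-galactosidase reporter signal from transgenic T. cruzi replicating inside host cells; inhibitors lower the luminescence signal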
# [14] = NIH3T3 cell viability loss – ATP luminescence, mouse fibroblasts, counter-screen, dose response (AID 2010); format: functional, cell-based;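 also: cells exposed to compound for about 90 hours before reading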
# [15] = Luminescence Cell-Based Dose Retest to Confirm Inhibitors of Cancer Stem Cells. [Related pubchem assays (depositor defined):AID2717, AID2721]; format: functional; details: Homo sapiens
# [16] = target: T3, Corticotropin-releasing factor receptor 2/Corticotropin-releasing factor-binding protein (Homo sapiens, UniProt P24387+Q13324); assay: activators of CRF receptor 2 with binding protein – uHTS hits, confirmation (AID 602473); format: functional; details: read-out: EC50_Mean
# T3 sequence (Q13324 whole entry): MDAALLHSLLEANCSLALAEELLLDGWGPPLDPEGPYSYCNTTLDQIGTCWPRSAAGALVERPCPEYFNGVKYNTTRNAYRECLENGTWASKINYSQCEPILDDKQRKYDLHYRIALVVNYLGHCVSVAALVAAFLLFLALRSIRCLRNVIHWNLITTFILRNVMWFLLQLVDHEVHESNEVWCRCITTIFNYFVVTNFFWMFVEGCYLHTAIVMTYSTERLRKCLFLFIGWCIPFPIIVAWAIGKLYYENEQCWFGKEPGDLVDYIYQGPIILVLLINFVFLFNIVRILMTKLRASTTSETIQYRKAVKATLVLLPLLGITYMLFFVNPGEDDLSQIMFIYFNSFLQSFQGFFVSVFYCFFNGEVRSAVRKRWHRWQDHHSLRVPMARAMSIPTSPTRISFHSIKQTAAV
# T3 sequence (P24387 whole entry): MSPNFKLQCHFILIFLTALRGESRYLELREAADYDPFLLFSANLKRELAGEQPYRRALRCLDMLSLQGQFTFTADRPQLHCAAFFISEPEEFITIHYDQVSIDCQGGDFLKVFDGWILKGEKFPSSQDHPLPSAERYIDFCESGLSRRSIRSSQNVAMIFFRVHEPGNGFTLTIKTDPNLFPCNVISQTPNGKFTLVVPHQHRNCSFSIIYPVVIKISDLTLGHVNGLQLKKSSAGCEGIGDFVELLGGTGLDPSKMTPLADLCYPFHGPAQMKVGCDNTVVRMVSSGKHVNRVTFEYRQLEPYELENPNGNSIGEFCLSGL
# Cytochrome P450 3A4, sequence (P08684 whole entry): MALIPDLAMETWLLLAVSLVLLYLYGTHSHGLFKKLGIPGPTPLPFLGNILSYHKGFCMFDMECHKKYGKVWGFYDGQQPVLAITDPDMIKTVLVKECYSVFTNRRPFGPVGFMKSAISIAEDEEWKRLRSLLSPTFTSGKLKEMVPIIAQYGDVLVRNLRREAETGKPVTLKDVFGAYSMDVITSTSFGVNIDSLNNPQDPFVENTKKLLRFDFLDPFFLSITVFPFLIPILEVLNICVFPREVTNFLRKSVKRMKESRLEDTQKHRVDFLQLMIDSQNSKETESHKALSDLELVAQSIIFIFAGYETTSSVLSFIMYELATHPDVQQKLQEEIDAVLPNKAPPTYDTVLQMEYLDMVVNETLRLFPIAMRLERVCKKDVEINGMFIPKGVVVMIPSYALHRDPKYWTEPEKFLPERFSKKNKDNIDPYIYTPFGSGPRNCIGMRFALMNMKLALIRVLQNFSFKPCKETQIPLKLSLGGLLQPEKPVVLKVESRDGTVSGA
# Cytochrome P450 2D6, sequence (P10635 whole entry): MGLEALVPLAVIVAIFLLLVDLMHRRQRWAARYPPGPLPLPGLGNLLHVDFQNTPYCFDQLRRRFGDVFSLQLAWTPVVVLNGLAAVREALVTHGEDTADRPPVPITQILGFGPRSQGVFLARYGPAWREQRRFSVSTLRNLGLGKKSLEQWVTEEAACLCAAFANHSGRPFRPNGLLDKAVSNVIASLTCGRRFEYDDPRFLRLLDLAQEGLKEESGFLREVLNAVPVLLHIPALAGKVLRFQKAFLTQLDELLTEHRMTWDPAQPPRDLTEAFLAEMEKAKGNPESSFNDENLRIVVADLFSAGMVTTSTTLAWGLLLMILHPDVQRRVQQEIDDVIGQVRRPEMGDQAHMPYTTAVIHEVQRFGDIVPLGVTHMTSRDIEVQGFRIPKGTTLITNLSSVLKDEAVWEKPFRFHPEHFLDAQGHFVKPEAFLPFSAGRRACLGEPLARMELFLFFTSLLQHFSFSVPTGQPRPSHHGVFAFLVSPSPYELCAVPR
# Cytochrome P450 2C9, sequence (P11712 whole entry): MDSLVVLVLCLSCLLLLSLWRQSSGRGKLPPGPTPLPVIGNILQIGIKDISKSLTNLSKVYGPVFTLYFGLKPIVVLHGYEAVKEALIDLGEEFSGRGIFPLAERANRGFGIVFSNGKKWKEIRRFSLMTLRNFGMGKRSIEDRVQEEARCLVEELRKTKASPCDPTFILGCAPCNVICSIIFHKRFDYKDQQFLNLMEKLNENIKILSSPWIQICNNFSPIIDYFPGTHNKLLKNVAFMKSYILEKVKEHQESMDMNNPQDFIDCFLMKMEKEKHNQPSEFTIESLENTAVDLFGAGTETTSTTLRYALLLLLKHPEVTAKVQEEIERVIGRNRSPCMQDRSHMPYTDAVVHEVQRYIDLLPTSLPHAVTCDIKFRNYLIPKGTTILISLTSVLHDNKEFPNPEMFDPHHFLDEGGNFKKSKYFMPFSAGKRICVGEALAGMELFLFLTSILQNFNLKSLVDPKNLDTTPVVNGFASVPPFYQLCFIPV
# Cytochrome P450 2C19, sequence (P33261 whole entry): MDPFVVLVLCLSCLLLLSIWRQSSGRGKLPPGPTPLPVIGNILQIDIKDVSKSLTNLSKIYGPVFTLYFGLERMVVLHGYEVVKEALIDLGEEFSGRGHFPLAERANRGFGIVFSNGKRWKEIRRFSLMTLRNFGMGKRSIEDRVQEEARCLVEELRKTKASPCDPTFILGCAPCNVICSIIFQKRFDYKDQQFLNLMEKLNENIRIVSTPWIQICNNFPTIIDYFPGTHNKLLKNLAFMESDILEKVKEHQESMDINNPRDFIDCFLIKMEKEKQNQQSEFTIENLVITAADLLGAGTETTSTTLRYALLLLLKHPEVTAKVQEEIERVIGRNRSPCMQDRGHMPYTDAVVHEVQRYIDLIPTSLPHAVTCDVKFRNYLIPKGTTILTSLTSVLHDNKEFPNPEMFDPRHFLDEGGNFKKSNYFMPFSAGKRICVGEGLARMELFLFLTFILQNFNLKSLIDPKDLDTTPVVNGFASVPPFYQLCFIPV
compound,measurement,setting,value
Nn1c(SCc2ccccc2)nnc1-c1ccco1,EC50,[1],> 195 µM (not active)
CCc1ccc(C(=O)NC(CCSC)C(=O)OC)cc1 (centres undefined),EC50,[1],> 195 µM (not active)
COc1cc(OC)c(OC)cc1CNc1cc(C)ccc1OC,AC50,[2],18.1 µM (active)
same,AC50,[3],47.2 µM (active)
same,AC50,[4],7.92 µM (active)
CCOc1ccccc1CNC(=O)CCn1ccc2cc(S(=O)(=O)N3CCCCC3)ccc21,EC50,[1],> 195 µM (not active)
C/C=C1\C[N@@+]2(C)CC[C@@]34C(=C(C=O)[C@H]1C[C@H]32)Nc1ccccc14,AC50,[5],6.31 µM (inconclusive)
same,AC50,[6],0.00126 µM (inconclusive)
COCCCn1c(-c2ccco2)nc2ccccc2c1=O,EC50,[1],> 195 µM (not active)
CC(C)c1nccn1Cc1ccc(Cl)cc1Cl,AC50,[7],2 µM (inconclusive)
same,AC50,[5],3.16 µM (inconclusive)
CCNc1ncc2nc(-c3cn(C)c4ccccc34)c(=O)n(C)c2n1,AC50,[5],12.6 µM (inconclusive)
same,AC50,[6],10 µM (inconclusive)
same,AC50,[8],39.8 µM (inconclusive)
COc1ccc(-c2cc(C(F)(F)F)nc(N3CCN(C)CC3)n2)cc1OC,EC50,[9],29.2 µM (active)
same,EC50,[10],30.2 µM (active)
same,AC50,[5],28.2 µM (inconclusive)
O=C(c1ccco1)N1CCC[C@@]2(CCN(c3ccncc3)C2)C1,AC50,[5],25.1 µM (inconclusive)
same,AC50,[8],15.8 µM (inconclusive)
O=C(Cn1c(C(=O)NCc2ccco2)cc2sccc21)c1ccccc1,IC50,[11],139 µM (active)
COc1ccccc1C1=NOC(COC(=O)c2ccc([N+](=O)[O-])cc2)C1 (centres undefined),IC50,[12],3.93 µM (active)
COc1ccc(-c2ncc3ccccn23)cc1OC,IC50,[11],126 µM (active)
O=C(Nc1ccc2c(c1)OCCO2)c1cccc2nc3ccccc3nc12,EC50,[13],2.09 µM (active)
same,EC50,[9],93.9 µM (active)
same,EC50,[14],> 60 µM (not active)
same,EC50,[10],47 µM (active)
same,AC50,[15],2.59 µM (active)
same,AC50,[5],8.91 µM (inconclusive)
O=C(OCC(=O)C12CC3CC(CC(C3)C1)C2)c1ccccn1,IC50,[12],37.8 µM (active)
COC(=O)[C@@H](NC(=O)c1cc(COc2cncc(Cl)c2)on1)c1ccccc1,IC50,[12],5.52 µM (active)
O=S(=O)(NCC1(N2CCOCC2)CCCCC1)c1ccc(Cl)cc1C(F)(F)F,EC50,[16],5.65 µM (active)
Cc1cccc(Oc2ncc(-c3ccc(Cl)cc3)cn2)c1C,AC50,[5],17.8 µM (inconclusive)
same,AC50,[6],25.1 µM (inconclusive)
CN(c1cccc(Cl)c1)S(=O)(=O)c1cccc(C(=O)NCc2ccncc2)c1,AC50,[2],< 0.26 µM (active)
same,AC50,[3],61.5 µM (active)
same,AC50,[4],0.664 µM (active)
Cc1ccccc1CN(C)CCc1ccccn1,IC50,[11],123 µM (active)
Cc1nn(Cc2c(F)c(F)c(F)c(F)c2F)c(C)c1NC(=O)c1c(-c2ccccc2)nn(-c2ccccc2)c1C,EC50,[9],21.9 µM (active)
same,EC50,[10],25.8 µM (active)
